Results from patent publication US20250297134A1, “HIGH RATE BULK OXIDE CMP COMPOSITION” (ENTEGRIS, INC., priority 2024, published 2025).

Test: Aqueous solubility of hydroxamic acid compounds
Assay type: physicochemical
Details: deionized water, pH 5.5, stirred overnight, filtered, 1H NMR quantification
Method: The aqueous solubility was measured and the partition coefficient was computed for nineteen hydroxamic acid compounds. To measure the aqueous solubility, a supersaturated solution of each hydroxamic acid compound was prepared in deionized water. The pH was adjusted to 5.5 using nitric acid and the supersaturated solution was stirred overnight. Excess solids were removed via filtration and the hydroxamic acid compound in solution was quantified using 1H NMR with a t-BuOH standard. […] It was not possible to achieve super saturation for the 2-furohydroxamic acid compound. […] The partition coefficients were computed using the procedure described in Wildman, Scott A. and Crippen, Gordon M., Prediction of Physicochemical Parameters by Atomic Contributions, J. Chem. Inf. Comput. Sci. 1999, 39, 5, 868-873. Briefly, an atom type classification system was used for an atom-based calculation of the partition coefficient (log P) and the molar refractivity (MR).

Aqueous Solubility [%] | Compound
0.4 | COc1ccc(C(=O)NO)cc1 [4-Methoxybenzohydroxamic acid]
0.5 | Cc1ccc(C(=O)NO)cc1 [4-Methylbenzohydroxamic acid]
1.6 | O=C(CCCc1ccccc1)NO [4-Phenylbutyrl hydroxamic acid]
3.6 | O=C(NO)c1ccccc1 [Benzohydroxamic acid]
1.8 | O=C(COCc1ccccc1)NO [Benzyloxyacetohydroxamic acid]
0.6 | O=C(C=Cc1ccccc1)NO [Cinnamohydroxamic acid]
4.8 | CCCCCC(=O)NO [Hexanohydroxamic acid]
1.5 | O=C(Cc1ccccc1)NO [N-hydroxy-2-phenyl-acetamide]
0.2 | CCCCCCCC(=O)NO [Octanohydroxamic acid]
3.0 | O=C(NO)c1ccccn1 [Picolinichydroxamic acid]

Continued, compound first:

Compound | Aqueous Solubility [%]
2-Fluoro hydroxamic acid | 1.0
3-Fluoro hydroxamic acid | 1.3
4-Fluoro hydroxamic acid | 1.0
COc1ccccc1C(=O)NO [2-Methoxybenzohydroxamic acid] | 1.1
Cc1ccccc1C(=O)NO [2-Methylbenzohydroxamic acid] | 3.3
O=C(NO)c1ccco1 [2-furohydroxamic acid] | >17.8
Cc1ccc(CCCC(=O)NO)cc1 [4-(p-tolyl)butyrohydroxamic acid] | 0.2
N#Cc1ccc(C(=O)NO)cc1 [4-Cyano-N-hydroxybenzamide] | 0.5
